The results in this text go back to article PMC9227250, “Design, Synthesis and Cytotoxic Activity Evaluation of Newly Synthesized Amides-Based TMP Moiety as Potential Anticancer Agents over HepG2 Cells” (Molecules, 2022).

The target in data set [1] is T1, HDAC1 (Homo sapiens, UniProt Q13547).
T1 construct: Briefly, HepG2 cells were trypsinized, counted and seeded; host or cells: HepG2
As to the kind of experiment: In vitro HDAC1 inhibition assay (ELISA kit). Format: biochemical. The following applies: HepG2 cells exposed 72 h. As to the method: (§1) See Section 4.3.2 in Supplementary Data.
(§2) 4.3.1. Cytotoxic activity evaluation […]
(§3) for 24 h under 5% CO2. After incubation, the cells were treated with different concentrations of the test schiff bases 2-6e and incubated for 24 h, then 20 µl of MTT […]
(§4) (DMSO) in volume of 100 µl was added to each well to dissolve the purple formazan that had formed. The color intensity of the formazan product, which represents the […]
(§5) USA) at 450 nm absorbance. The experimental conditions were carried out with at least three replicates, and the experiments were repeated at least three times.
(§6) 4.3.2. In vitro HDAC inhibition assay
(§7) HDAC isoforms (HDAC1, 2) were measured using ELISA assay kits {Mybiosource, Inc. [#MBS2020012 and #MBS2510971]} according to manufacturer's directions.
(§8) 96-well micro titer plates. Cells then were incubated in a humidified atmosphere at 37 °C for 24 h. The standards, the tested compounds, and the positive reference SAHA were diluted to designated concentrations. On the 96-well micro titer plates standard or sample was added to each well in 100 µL, and incubated at 37 °C for 2 h. The solution was aspirated and 100 µL of prepared. Detection Reagent A was added to […]
4.3.3. […]
(§9) The samples were immediately analyzed using Facs Calibur flow cytometer (Becton and Dickinson, Heidelberg, Germany). […]
(§10) immediately analyzed using FACS Calibur flow cytometer (Becton and Dickinson, […]

Data set [2] has as its target T2, β-tubulin (Homo sapiens, UniProt P07437+P68363).
T2 construct: […]
In words: Tubulin polymerization inhibition assay (Human Beta-tubulin ELISA kit). It counts as biochemical. As to the method:
See Section 4.3.3 in Supplementary Data.
4.3.3. Tubulin inhibitions Assay […]
manufacturer’s instructions using # abcam Human Beta-tubulin simplestep ELISA Kit […]
Cell cycle analysis in HepG2 cells was investigated using fluorescent Annexin V - FITC/ PI detection kit (BioVision EZCellTM Cell Cycle Analysis Kit Catalog #K920) […]
After treatment, cells were washed twice in PBS, fixed in 70% ethanol, rinsed again with PBS. Cells were collected by centrifugation at 2000 rpm for 5 min and stained with DNA […]
The samples were immediately analyzed using Facs Calibur flow cytometer (Becton and Dickinson, Heidelberg, Germany).
Apoptosis in HepG2 cells was investigated using fluorescent Annexin V-FITC/ PI detection kit (BioVision Annexin V-FITC Apoptosis Detection Kit, Catalog #: K101) […]
as §10
Caspase 3/7 in HepG2 cells was investigated using CellEvent® Caspase 3/7 Green Detection Flow Cytometry Assay Kit. Caspase 3/7 activity in HepG2 cell line was […]
CellEvent® caspase 3/7 green detection flow cytometry assay kit according to manufacturer’s directions. […]
harvested and washed with ice cold PBS, and cell lysates were prepared and […]
(An ELISA detects its analyte on a solid surface through an enzyme-linked reagent.)

Data set [3] deals with HL-7702 cells. As to the kind of experiment: MTT cytotoxicity assay against normal liver cell line HL-7702. It counts as cell-based, human. As to the method:
(§11) Cytotoxic activity was carried out using MTT colorimetric antiproliferative assay to investigate the effect of the prepared molecules on HepG2 as well as HL-7702 cell lines. See Section 4.3.1 in Supplementary Data.
(§12) 4.3.1. Cytotoxic activity evaluation
(§13) To measure the cytotoxic actvity of the amide derivatives 2-6e in hepatocellular carcinoma (HepG2) cell line (ATCC Cat No. HB-8065) as well as normal human liver cell line HL-7702 (ATCC Cat. No. 77402), cell viability assay was assessed using MTT assay method. Cells at density of 1 x 104 were seeded in a 96-well plate at 37 °C for 24 h under 5% CO2. After incubation, the cells were treated with different concentrations of the test schiff bases 2-6e and incubated for 24 h, then 20 µl of MTT solution at 5 mg/mL was applied and incubated for 4 h at 37 °C . Dimethyl sulphoxide (DMSO) in volume of 100 µl was added to each well to dissolve the purple formazan that had formed. The color intensity of the formazan product, which represents the growth condition of the cells, is quantified by using an ELISA plate reader (EXL 800, USA) at 450 nm absorbance. The experimental conditions were carried out with at least three replicates, and the experiments were repeated at least three times. […]

The test system of data set [4] is HepG2 cells. As to the kind of experiment: Annexin V-FITC/PI apoptosis assay. It counts as cell-based, human. The following applies: HepG2, IC50 concentration, 48 h. As to the method: G2/M blockade is often followed by cellular apoptosis. To quantify the percentage of cellular apoptosis induced by compound 6a in HepG2 cells, Annexin V fluorescein isothiocyanate versus propidium iodide (PI) dual staining analysis was performed after treatment with compound 6a at its IC50 concentration for 48 h. The results were presented graphically in Figure 5. […] Therefore, it can be concluded that compound 6a can be considered as apoptotic inducer.
Apoptosis in HepG2 cells was investigated using fluorescent Annexin V-FITC/ PI detection kit (BioVision Annexin V-FITC Apoptosis Detection Kit, Catalog #: K101) by flow cytometry assay. See Section 4.3.5 in Supplementary Data. […]
(§14) concentration that induces 50% of maximum inhibition of HDAC isoforms (IC50) […]
(§15) 4.3.3. Tubulin inhibitions Assay
(§16) Compound 6a was evaluated for its tubulin inhibitory activity according to manufacturer’s instructions using # abcam Human Beta-tubulin simplestep ELISA Kit […]
(§17) 4.3.4. Cell cycle analysis of compound 6a
Cell cycle analysis in HepG2 cells was investigated using fluorescent Annexin V - FITC/ PI detection kit (BioVision EZCellTM Cell Cycle Analysis Kit Catalog #K920) by flow cytometry assay. HepG2 cells at a density of 2 × 10^5 per well were treated with compound 6a at its IC50 concentration for 48 h. After treatment, cells were washed twice in PBS, fixed in 70% ethanol, rinsed again with PBS. Cells were collected by centrifugation at 2000 rpm for 5 min and stained with DNA fluorochrome PI for 15 min at 37 °C in dark. The samples were immediately analyzed using Facs Calibur flow cytometer (Becton and Dickinson, Heidelberg, Germany).
4.3.5. Apoptosis assay for compound 6a […]
Caspase 3/7 in HepG2 cells was investigated using CellEvent® Caspase 3/7 Green Detection Flow Cytometry Assay Kit. Caspase 3/7 activity in HepG2 cell line was detected in the presence of compounds 6a at its IC50 concentration (µM) using CellEvent® caspase 3/7 green detection flow cytometry assay kit according to manufacturer’s directions. […]

In data set [5] the target is T3, HDAC2 (Homo sapiens, UniProt Q92769).
T3 construct: Briefly, HepG2 cells were trypsinized, counted and seeded; host or cells: HepG2
T3 sequence (Q92769 whole entry): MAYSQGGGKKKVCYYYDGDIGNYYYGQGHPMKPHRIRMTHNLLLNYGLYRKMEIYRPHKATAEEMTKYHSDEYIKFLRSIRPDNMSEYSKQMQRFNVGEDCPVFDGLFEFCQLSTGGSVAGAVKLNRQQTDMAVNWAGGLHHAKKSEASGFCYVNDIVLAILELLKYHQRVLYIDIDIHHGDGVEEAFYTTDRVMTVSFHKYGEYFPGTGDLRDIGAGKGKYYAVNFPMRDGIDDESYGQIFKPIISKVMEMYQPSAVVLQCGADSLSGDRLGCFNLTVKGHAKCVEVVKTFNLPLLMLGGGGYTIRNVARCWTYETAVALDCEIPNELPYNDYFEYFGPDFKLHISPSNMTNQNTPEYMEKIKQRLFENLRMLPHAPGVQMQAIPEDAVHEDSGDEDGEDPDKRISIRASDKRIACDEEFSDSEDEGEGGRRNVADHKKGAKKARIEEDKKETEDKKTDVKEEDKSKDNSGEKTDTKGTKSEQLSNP
As to the kind of experiment: In vitro HDAC2 inhibition assay (ELISA kit). It counts as biochemical. Particulars: HepG2 cells exposed 72 h. As to the method: as §1, §2, §3, §4, §5, §6, §7, §8
4.3.3. […]
as §9, §10

Data set [6] has as its system HepG2 cells. In words: Cell cycle analysis by flow cytometry (PI). Particulars: HepG2, IC50 dose, 48 h; untreated control 7.28%. Format: cell-based, human.
Source text: Inhibition of tubulin assembly into microtubule and the antiproliferative effects are characterized by cell cycle arrest in the G2/M phase. […] The results in this study indicate that the newly prepared tetraamide derivative 6a cause cell cycle perturbation in the G2/M phase which is the main gauge of HDAC and tubulin inhibitors confirming the mode of action under study.
Cell cycle analysis in HepG2 cells was investigated using fluorescent Annexin V-FITC/ PI detection kit (BioVision EZCell^TM Cell Cycle Analysis Kit Catalog #K920) by flow cytometry assay. See Section 4.3.4 in Supplementary Data. […]
as §14, §15, §16, §17
Cell cycle analysis in HepG2 cells was investigated using fluorescent Annexin V - FITC/ PI detection kit (BioVision EZCellTM Cell Cycle Analysis Kit Catalog #K920) by flow cytometry assay. HepG2 cells at a density of 2 × 10^5 per well were treated with compound 6a at its IC50 concentration for 48 h. […] The samples were immediately analyzed using Facs Calibur flow cytometer (Becton and Dickinson, Heidelberg, Germany). […]
A general note: In flow cytometry, cells or beads pass a laser one at a time.

Data set [7] relates to HepG2 cells. In words: MTT cytotoxicity assay against HepG2 cell line. Format: cell-based. The following applies: Homo sapiens, mean of three independent replicates ± SE. As to the method: as §11, §12, §13

T2 sequence (P07437 whole entry): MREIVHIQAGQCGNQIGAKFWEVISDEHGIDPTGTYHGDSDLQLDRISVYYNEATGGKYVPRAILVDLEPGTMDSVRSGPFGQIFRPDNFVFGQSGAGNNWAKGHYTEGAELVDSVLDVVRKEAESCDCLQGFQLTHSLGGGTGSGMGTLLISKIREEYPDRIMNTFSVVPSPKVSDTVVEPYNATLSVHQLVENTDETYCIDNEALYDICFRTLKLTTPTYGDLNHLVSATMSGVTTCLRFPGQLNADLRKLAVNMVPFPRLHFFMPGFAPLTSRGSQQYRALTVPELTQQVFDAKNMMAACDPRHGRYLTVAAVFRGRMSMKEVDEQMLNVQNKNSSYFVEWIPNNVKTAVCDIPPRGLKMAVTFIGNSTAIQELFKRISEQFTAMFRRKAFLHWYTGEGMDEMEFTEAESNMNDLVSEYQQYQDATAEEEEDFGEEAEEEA
T2 sequence (P68363 whole entry): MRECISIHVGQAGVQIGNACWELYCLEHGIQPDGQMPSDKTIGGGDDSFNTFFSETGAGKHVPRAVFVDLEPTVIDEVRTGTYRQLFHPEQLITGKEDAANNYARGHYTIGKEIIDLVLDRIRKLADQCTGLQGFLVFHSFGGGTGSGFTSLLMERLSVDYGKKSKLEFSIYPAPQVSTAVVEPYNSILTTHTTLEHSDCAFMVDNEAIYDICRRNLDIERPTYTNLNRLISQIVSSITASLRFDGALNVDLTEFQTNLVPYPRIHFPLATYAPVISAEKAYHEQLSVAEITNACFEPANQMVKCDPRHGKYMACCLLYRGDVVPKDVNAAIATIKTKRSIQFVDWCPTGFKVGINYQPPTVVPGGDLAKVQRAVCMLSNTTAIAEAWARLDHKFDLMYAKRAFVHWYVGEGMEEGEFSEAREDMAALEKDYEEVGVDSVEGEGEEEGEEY
T1 sequence (Q13547 whole entry): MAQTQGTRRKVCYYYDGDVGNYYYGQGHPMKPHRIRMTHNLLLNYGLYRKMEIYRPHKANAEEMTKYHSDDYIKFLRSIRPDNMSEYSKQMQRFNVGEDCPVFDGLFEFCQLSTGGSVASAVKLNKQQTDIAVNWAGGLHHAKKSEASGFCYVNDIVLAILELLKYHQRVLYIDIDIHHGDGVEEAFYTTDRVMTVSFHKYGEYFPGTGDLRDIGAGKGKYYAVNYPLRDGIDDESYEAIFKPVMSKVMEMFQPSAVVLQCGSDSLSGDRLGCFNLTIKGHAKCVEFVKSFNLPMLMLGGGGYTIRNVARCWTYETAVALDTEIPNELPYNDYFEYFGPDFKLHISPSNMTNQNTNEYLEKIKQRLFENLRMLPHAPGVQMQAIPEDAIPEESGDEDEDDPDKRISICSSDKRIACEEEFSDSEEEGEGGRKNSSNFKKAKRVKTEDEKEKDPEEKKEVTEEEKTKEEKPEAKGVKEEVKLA

As usually defined, the melting point is the temperature, or range, at which the solid turns liquid. In general, IC50 refers to the concentration that inhibits the measured activity by half. A higher IC50 goes with lower potency. On to `COc1cc(C(=O)NC(=Cc2ccc(Cl)cc2)C(=O)NNC(=O)/C(=C/c2ccco2)NC(=O)c2cc(OC)c(OC)c(OC)c2)cc(OC)c1OC` [Compound 6a, N-((1Z)-3-(2-(3-(4-chlorophenyl)-2-(3,4,5-trimethoxybenzamido)acryloyl)hydrazinyl)-1-(furan-2-yl)-3-oxoprop-1-en-2-yl)-3,4,5-trimethoxybenzamide], for which the melting point is 209 to 211 °C. Besides, the IC50 in data set [1] is 47 nM. For the same compound, the “tubulin polymerization percentage inhibition” value in data set [2] (ELISA for β-tubulin, compared with untreated control cells) was 66.39%. The compound further came in with an IC50 in data set [2] (β-tubulin ELISA) of 270 nM. In addition, the “selectivity ratio toward normal liver cell line” value in data set [3] (HL-7702 (printed HL-7022) versus HepG2) is recorded as 14.8. Besides, in data set [3] (Homo sapiens, L02, MTT assay, normal liver cell line HL-7702, mean of three independent replicates ± SE), the half-inhibitory concentration (IC50) was found to be 9620 ± 230 nM. Further, in data set [4] (untreated control 0.13%), the “late apoptotic cell percentage” value is reported as 12.08%. Moreover, the “early apoptotic cell percentage” value in data set [4] (untreated control 0.52%) came out at 23.41%. The total apoptosis percentage in data set [4] (untreated control 1.59%) came out at 37.51%. The same compound registered an IC50 in data set [5] of 86 nM. Moreover, in data set [6], the “cells in G2/M phase” value was determined as 39.09%. Inhibition in data set [7] was half-maximal at 650 ± 30 nM (IC50).
